According to patent publication US7608415B2, “Analysis of intracellular modifications” (Discoverx Corporation, priority 2004, dated 2009):

System: IκB-PL
Assay: Homogenous EFC assay of lysates of HeLa/IκB-PL stable cell line stimulated with TNF-α
Type: cell-based
Details: increasing time periods
Excerpt: The second experimental example illustrates the sensitivity of the EAstern blot method by following the regulated degradation of a PL-tagged cellular protein, IκB-PL. […] Stimulation of cells with cytokines, such as TNF-α, activates a pathway that leads to phosphorylation, ubiquitination, and subsequent degradation of IκB, which in turn leads to the release and activation of NF-κB. The regulated degradation of IκB is thus an indicator for NF-κB pathway activation.
Cell lysate samples for EAstern blot analysis were prepared from a HeLa/IκB-PL stable cell line (WO 03/021265, filed Aug. 27, 2002) that was cultured and stimulated with TNF-α for increasing time periods. […] Another fraction of each was used for gel electrophoresis and transfer to PVDF blots as described above. To detect IκB-PL, the EAstern blot protocol was adapted for use with the chemiluminescent substrate Beta-Glo (Promega Corp., Cat. No. E4720). In particular, after incubating with EA Reagent, the blot was incubated at RT for 10 min in a solution of Beta-Glo:EACB (1:1, v/v), sandwiched between clear plastic sheets, and then its luminescence detected with a CCD camera.

Q: With TNF-α as the substance, how does the “IκB-PL EFC signal after TNF-α stimulation” value read?
A: time-dependent degradation of IκB-PL signal
